Values belong to the compound of their own block, whether it stands above or below them.
How the values were obtained:
[1] = tested on: H1299 cells; test: in vitro antiproliferation assay, H1299 (lung); type: cell-based
Outline: (§1)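 Standard in vitro antiproliferation assays on tumour cell lines, including A549 and H1299 (both lung); IC50 values determined.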

[2] = tested on: A549 cells; test: in vitro antiproliferation assay, A549 (lung); type: cell-based
Outline: as §1

[3] = Table 7, in vitro antiproliferation, H1299 (lung) cells
[4] = Table 7, in vitro antiproliferation, A549 (lung) cells
[5] = Table 5, in vitro antiproliferation, H1299 (lung) cells
[6] = Table 5, in vitro antiproliferation, A549 (lung) cells
[7] = H1299 (lung) cells, in vitro antiproliferation
[8] = A549 (lung) cells, in vitro antiproliferation
[9] = IC50 class against H1299 (lung) tumor cells
[10] = IC50 class against A549 (lung) tumor cells
[11] = Homo sapiens, NCI-H1299, IC50 class against H1299 (lung) tumor cells
[12] = Homo sapiens, IC50 class against A549 (lung) tumor cells
[13] = H1299 (lung) cells, antiproliferation
[14] = A549 (lung) cells, antiproliferation

IC50 [1, 3]: ≤ 20 µM
IC50 [2, 4]: > 20 µM
Compound: COC(=O)c1cc2cc(Nc3ncc(F)c(N(C)c4cc(OC)cc(OC)c4)n3)ccc2o1 [compound 662]

IC50 [1, 5]: > 20 µM
IC50 [2, 6]: ≤ 20 µM
Compound: COc1cc(Nc2ncc(F)c(N(C)c3ccc4c(c3)OCCO4)n2)cc(OC)c1 [compound 546]

IC50 [1, 9]: ≤ 20 µM
IC50 [2, 10]: ≤ 20 µM
Compound: CC(=O)N1CCN(c2cccc(Nc3ncc(F)c(Nc4ccc5c(n4)NCCO5)n3)c2)CC1 [compound 606]

IC50 ([1]; H1299 (lung) cells): ≤ 20 µM
IC50 ([2]; A549 (lung) cells): ≤ 20 µM
Compound: Cc1c(O)cccc1Nc1ncc(F)c(Nc2ccc3c(c2)NC(=O)CO3)n1 [compound 1063]

IC50 [1, 13]: ≤ 20 µM
IC50 [2, 14]: > 20 µM
Compound: COc1cc(Nc2nc(Nc3ccc(C(N)=O)c(Cl)c3)ncc2F)ccc1Cl [compound 1034]

IC50 [1, 3]: ≤ 20 µM
IC50 [2, 4]: > 20 µM
Compound: COc1cc(Nc2nc(Nc3ccc4[nH]c(C(C)=O)cc4c3)ncc2F)cc(OC)c1 [compound 658]

IC50 [1, 9]: ≤ 20 µM
IC50 [2, 10]: ≤ 20 µM
Compound: CNc1ncc(F)c(N(C)c2ccc3c(c2)OCCO3)n1 [compound 1038]

IC50 [1, 13]: ≤ 20 µM
IC50 [2, 14]: ≤ 20 µM
Compound: CCN(CC)CCNC(=O)c1ccc(Nc2ncc(F)c(Nc3ccc(Cl)c(OC)c3)n2)cc1 [compound 1035]

IC50 [1, 13]: ≤ 20 µM
IC50 [2, 14]: ≤ 20 µM
Compound: COc1ccc(Nc2nc(Nc3ccc(CNC(=O)OC(C)(C)C)cc3)ncc2F)cc1Cl [compound 1023]

IC50 [1, 7]: > 20 µM
IC50 [2, 8]: ≤ 20 µM
Compound: COc1c(Cl)cc(Nc2ncc(F)c(Nc3ccc(OC(F)(F)F)c(Cl)c3)n2)cc1Cl [compound 832]

Second part, the compound before the results:

Compound: Fc1cnc(Nc2cc(Cl)cc(Cl)c2)nc1Nc1ccc2c(c1)OCCO2 [compound 530]
IC50 [1, 5]: ≤ 20 µM
IC50 [2, 6]: ≤ 20 µM

Compound: COc1cc(Nc2nc(Nc3cccc(O)c3)ncc2F)cc(OC)c1 [compound 768]
IC50 [1, 7]: ≤ 20 µM
IC50 [2, 8]: ≤ 20 µM

Compound: CC(=O)N1CCN(c2cccc(Nc3ncc(F)c(Nc4cc(C5CC5)[nH]n4)n3)c2)CC1 [compound 205]
IC50 [1, 11]: ≤ 20 µM
IC50 [2, 12]: ≤ 20 µM

Compound: CCOC(=O)c1cc2cccc(Nc3ncc(F)c(N(C)c4ccc(OC)c(OC)c4)n3)c2[nH]1 [compound 666]
IC50 [1, 3]: ≤ 20 µM
IC50 [2, 4]: ≤ 20 µM

Compound: COc1cc(Nc2nc(Nc3cccc(-c4ncco4)c3)ncc2F)cc(OC)c1OC [compound 932]
IC50 [1, 13]: ≤ 20 µM
IC50 [2, 14]: ≤ 20 µM

Compound: Fc1ccc(Nc2ncc(F)c(Nc3ccc(F)c(Cl)c3)n2)cc1Cl [compound 719]
IC50 [1, 7]: > 20 µM
IC50 [2, 8]: > 20 µM

Compound: CCN1CCN(c2ccc(Nc3ncc(F)c(NC4CC(C)(C)N(C)C(C)(C)C4)n3)cn2)CC1 [compound 183]
IC50 [1, 9]: ≤ 20 µM
IC50 [2, 10]: ≤ 20 µM

Compound: COc1cc(C)c(Nc2ncc(F)c(Nc3ccc4c(c3)NC(C)(C)CO4)n2)cc1Cl [compound 1142]
IC50 ([1]; Homo sapiens, NCI-H1299, H1299 (lung) cells): > 20 µM
IC50 ([2]; Homo sapiens, A549 (lung) cells): ≤ 20 µM

Compound: O=C(Nc1ccc(Nc2ncc(F)c(NC3CCC3)n2)cc1)c1ccccc1 [compound 131]
IC50 [1, 9]: ≤ 20 µM
IC50 [2, 10]: ≤ 20 µM

Compound: CCN1CCN(c2ccc(Nc3ncc(F)c(NC(C)(C)C)n3)cn2)CC1 [compound 226]
IC50 [1, 9]: ≤ 20 µM
IC50 [2, 10]: ≤ 20 µM

Compound: CNC(=O)COc1cccc(Nc2ncc(F)c(N(C)c3cc(C)c(Cl)c(C)c3)n2)c1 [compound 913]
IC50 [1, 13]: ≤ 20 µM
IC50 [2, 14]: ≤ 20 µM

Compound: CCN1CCN(c2ccc(Nc3ncc(F)c(NC4CCC4)n3)cn2)CC1 [compound 167]
IC50 [1, 9]: ≤ 20 µM
IC50 [2, 10]: ≤ 20 µM

Compound: CCOC(=O)N1CCC(Nc2nc(Nc3ccc(N4CCN(C)CC4)cc3)ncc2F)CC1 [compound 185]
IC50 [1, 9]: ≤ 20 µM
IC50 [2, 10]: ≤ 20 µM

Compound: COc1cc(Nc2ncc(F)c(N(C)c3ccc(OC)c(OC)c3)n2)cc(OC)c1 [compound 865]
IC50 [1, 7]: ≤ 20 µM
IC50 [2, 8]: ≤ 20 µM

Compound: COC(=O)c1cc2cccc(Nc3ncc(F)c(N(C)c4ccc5c(c4)OCCO5)n3)c2o1 [compound 661]
IC50 [1, 3]: > 20 µM
IC50 [2, 4]: > 20 µM

Compound: COc1ccc(N(C)c2nc(Nc3ccc(C)cc3)ncc2F)cc1Cl [compound 907]
IC50 [1, 13]: ≤ 20 µM
IC50 [2, 14]: > 20 µM

Compound: CCOC(=O)COc1cccc(Nc2ncc(F)c(Nc3ccc4c(c3)OCCO4)n2)c1 [compound 491]
IC50 [1, 5]: ≤ 20 µM
IC50 [2, 6]: > 20 µM

Compound: Cc1cc(C)cc(Nc2ncc(F)c(Nc3ccc4c(c3)OC(F)(F)O4)n2)c1 [compound 562]
IC50 [1, 5]: ≤ 20 µM
IC50 [2, 6]: ≤ 20 µM

Compound: Cc1cc(C)cc(Nc2ncc(F)c(Nc3cccc(Nc4ncc[nH]4)c3)n2)c1 [compound 1052]
IC50 [1, 11]: ≤ 20 µM
IC50 [2, 12]: ≤ 20 µM

— patent US8809341B2, “2,4-pyrimidinediamine compounds and uses as anti-proliferative agents” (Rigel Pharmaceuticals, Inc., priority 2003, dated 2014)
